This is an account of results in patent publication US5906930A, “Para-nitrobenzyl esterases with enhanced activity in aqueous and nonaqueous media” (California Institute of Technology, priority 1998, dated 1999).

Each structure is given as a SMILES string. Positions count from the first letter of the chain named.

For assay [1], the target named is T1, Bacillus subtilis para-nitrobenzyl esterase variant 1-1H9 (incl. Y370F), SEQ. ID. NO. 4 (Bacillus subtilis, UniProt P37967, H322R/Y370F).
T1 sequence (P37967 1-489 K23L/S59P/K95Q/N150D/S230A/G242S/K246R/S251A/A291S/H322R/V343A/Y370F/K390E/L463V): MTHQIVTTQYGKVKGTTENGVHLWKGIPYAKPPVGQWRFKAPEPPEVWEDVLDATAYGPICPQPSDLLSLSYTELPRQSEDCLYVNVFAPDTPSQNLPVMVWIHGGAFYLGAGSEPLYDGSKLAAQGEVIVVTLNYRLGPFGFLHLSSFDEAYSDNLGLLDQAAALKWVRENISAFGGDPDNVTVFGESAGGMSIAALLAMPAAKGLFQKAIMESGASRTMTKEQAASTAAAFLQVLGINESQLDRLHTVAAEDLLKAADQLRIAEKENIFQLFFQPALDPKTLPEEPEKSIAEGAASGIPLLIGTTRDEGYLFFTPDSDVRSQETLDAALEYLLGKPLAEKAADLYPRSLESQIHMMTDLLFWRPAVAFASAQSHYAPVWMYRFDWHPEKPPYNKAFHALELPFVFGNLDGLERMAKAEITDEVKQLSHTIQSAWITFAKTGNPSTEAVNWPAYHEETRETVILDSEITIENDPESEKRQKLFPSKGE
As to the kind of experiment: Kinetic assays of purified pNB esterase (ester hydrolysis). It counts as biochemical. The note with it: 0.1M PIPES pH 7.0, 30° C. How it is done:
Bacteria expressing seven pNB esterases, 0-WT (SEQ. ID. NO. 2), 1-1H9, 2-19E10, 3-10C4, 4-38B9, 4-43E7, and 4-54B9, were grown in one liter cultures and the enzymes were purified. These purified enzymes were assayed for their ability to hydrolyze the different ester substrates in the presence of various concentrations of DMF.
The effects on kcat, however, are more prominent: kcat increases more than 9-fold from wild type to 4-54B9 in 15% DMF, while KM decreases by less than a factor of two on LCN-pNB. […] These improvements are obviously the most useful for enzymes intended to be used for transformations in high substrate concentrations.
(§1) Kinetic assays were performed on three substrates: pNPA, LCN-pNP, and p-nitrobenzyl loracarbef nucleus (LCN-pNB). For pNPA and LCN-pNP substrates, final concentrations varying from 0.0625 mM to 16 mM and 0, 15, and 30% DMF in 0.1M PIPES (Sigma), pH 7.0 were combined with equal volumes of enzyme samples. These samples were mixed simultaneously in a 96 well plate and monitored with the 96 well plate reader. The absorbance values were recorded, linearly regressed, and then used for calculating kinetic parameters. For the LCN-pNB substrate, final concentrations varying from 0.0156 mM to 8.0 mM and 0, 15 and 30% DMF in PIPES, pH 7.0 were combined with enzyme samples in a quartz cuvette and were measured in a spectrophotometer at 289 nm. All assays were measured in triplicate.

In assay [2] the target is T2, Bacillus subtilis para-nitrobenzyl esterase variant 4-38B9 (3-10C4 substitutions + I60V), SEQ. ID. NO. 10 (Bacillus subtilis, UniProt P37967, H322R/I60V/L144M/M358V/Y370F).
T2 sequence (P37967 1-489 K23L/S59P/I60V/K95Q/L144M/N150D/S230A/G242S/K246R/S251A/A291S/H322R/V343A/M358V/Y370F/K390E/L463V): T1 sequence (P37967 1-489 K23L/S59P/K95Q/N150D/S230A/G242S/K246R/S251A/A291S/H322R/V343A/Y370F/K390E/L463V) with I60V, L144M, M358V
Described as above. The note with it: 0.1M PIPES pH 7.0, 30° C. It counts as biochemical. How it is done:
Bacteria expressing seven pNB esterases, 0-WT (SEQ. ID. NO. 2), 1-1H9, 2-19E10, 3-10C4, 4-38B9, 4-43E7, and 4-54B9, were grown in one liter cultures and the enzymes were purified. These purified enzymes were assayed for their ability to hydrolyze the different ester substrates in the presence of various concentrations of DMF. FIGS. 8a, b and c show the specific reaction rates on pNPA as a function of pNPA substrate concentration for this series of evolved variants from the four generations of mutagenesis and screening. […] The wild type enzyme outperforms 1-1H9 in purely aqueous buffer (FIG. 8a). The actual screening, however, was performed in the presence of DMF, and in 15 and 30% DMF, 1-1H9 has higher specific activity towards pNPA than wild type (FIGS. 8b and 8c). Similar trends are seen for the remaining variants assayed on this substrate. […] In 30% DMF, wild type drops still further relative to the pNB esterase variants. Variants 4-38B9 and 4-43E7, presumably by, virtue of having been screened in DMF for four rounds of mutagenesis, are the best performers in 30% DMF.
DMF dramatically increases KM while also decreasing kcat. For the LCN substrates, the mutations accumulated during directed evolution mitigate the increased KM. The effects on kcat, however, are more prominent: kcat increases more than 9-fold from wild type to 4-54B9 in 15% DMF, while KM decreases by less than a factor of two on LCN-pNB. […] At substrate concentrations […], increased specific activity will result mainly from improvements in kcat. These improvements are obviously the most useful for enzymes intended to be used for transformations in high substrate concentrations.
as §1

The mark [3] stands for this setting: substrate p-nitrophenyl loracarbef nucleus, 0% DMF.
The mark [4] stands for this setting: substrate p-nitrophenyl loracarbef nucleus, 15% DMF.
Setting [5] is: substrate p-nitrophenyl loracarbef nucleus, 30% DMF.
Setting [6] is: substrate p-nitrobenzyl loracarbef nucleus, 0% DMF.
The mark [7] stands for this setting: substrate p-nitrobenzyl loracarbef nucleus, 15% DMF.

As to `NC1C(=O)N2C(C(=O)Oc3ccc([N+](=O)[O-])cc3)=C(Cl)CCC12` (stereo not shown) [p-nitrophenyl loracarbef nucleus], the kcat in assay [1] (setting [3]) is on record as 0.08; in assay [1] (setting [4]) it was 0.07; in assay [1] (setting [5]), 0.021; in assay [2] (setting [3]) it was 0.39; in assay [2] (setting [4]), 0.25; in assay [2] (setting [5]), 0.067.
Turning to `NC1C(=O)N2C(C(=O)OCc3ccc([N+](=O)[O-])cc3)=C(Cl)CCC12` (stereo not shown) [p-nitrobenzyl loracarbef nucleus], the kcat in assay [1] (setting [6]) is given as 1.94; in assay [1] (setting [7]), 0.69; in assay [2] (setting [6]), 8.51; in assay [2] (setting [7]), 1.89.
